Source: US7507717B2 (Xenome Ltd., priority 2002, dated 2009)
Residues, ends and D or L forms follow the SMILES beside them.

The molecules below were run against T1, human noradrenaline transporter (hNET) (Homo sapiens, UniProt P23975) (assay: biochemical). Conditions: Av IC50 Displacement of 3H-nisoxetine from hNET.
T1 construct: expressed in transfected cells; host or cells: COS-7 cells (ATCC), transient transfection with metafectene
Assay type: binding

T1 sequence (P23975 whole entry): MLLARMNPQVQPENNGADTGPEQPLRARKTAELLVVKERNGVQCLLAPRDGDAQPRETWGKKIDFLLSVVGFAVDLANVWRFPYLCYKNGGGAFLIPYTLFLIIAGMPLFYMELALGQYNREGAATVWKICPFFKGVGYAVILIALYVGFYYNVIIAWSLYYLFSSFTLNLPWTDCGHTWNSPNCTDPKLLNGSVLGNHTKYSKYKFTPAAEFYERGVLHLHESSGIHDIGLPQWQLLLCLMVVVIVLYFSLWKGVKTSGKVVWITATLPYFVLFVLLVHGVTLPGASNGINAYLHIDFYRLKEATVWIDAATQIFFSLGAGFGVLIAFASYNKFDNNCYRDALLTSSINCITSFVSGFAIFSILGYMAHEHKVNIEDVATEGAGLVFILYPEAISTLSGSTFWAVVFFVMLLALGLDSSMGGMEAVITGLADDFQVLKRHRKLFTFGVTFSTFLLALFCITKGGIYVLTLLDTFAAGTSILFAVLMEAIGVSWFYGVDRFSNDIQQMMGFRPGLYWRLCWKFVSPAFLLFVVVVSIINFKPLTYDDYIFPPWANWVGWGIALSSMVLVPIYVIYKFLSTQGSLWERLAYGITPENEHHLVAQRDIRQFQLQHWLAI

Structure (SMILES)	IC50 [µM]
CC[C@H](C)[C@H](NC(=O)CNC(=O)[C@@H](N)CC(N)=O)C(=O)N[C@H]1CSSC[C@@H](C(N)=O)NC(=O)[C@@H]2CCCN2C(=O)[C@H](Cc2c[nH]cn2)NC(=O)[C@@H]2CSSC[C@H](NC1=O)C(=O)NCC(=O)N[C@@H](Cc1ccc(O)cc1)C(=O)N[C@@H](CCCCN)C(=O)N[C@@H](CC(C)C)C(=O)N2 [compound 125] (HELM PEPTIDE1{N.G.I.C.C.G.Y.K.L.C.H.P.C.[am]}$PEPTIDE1,PEPTIDE1,4:R3-13:R3|PEPTIDE1,PEPTIDE1,5:R3-10:R3$$$V2.0)	1.41
CC(C)C[C@@H]1NC(=O)[C@H](CCCCN)NC(=O)[C@H](Cc2ccc(O)cc2)NC(=O)CNC(=O)[C@@H]2CSSC[C@H](NC1=O)C(=O)N[C@@H](Cc1c[nH]cn1)C(=O)N1CCC[C@H]1C(=O)N[C@H](C(N)=O)CSSC[C@H](NC(=O)[C@@H](NC(=O)CNC(=O)[C@@H](N)CC(N)=O)[C@@H](C)O)C(=O)N2 [compound 138] (HELM PEPTIDE1{N.G.T.C.C.G.Y.K.L.C.H.P.C.[am]}$PEPTIDE1,PEPTIDE1,4:R3-13:R3|PEPTIDE1,PEPTIDE1,5:R3-10:R3$$$V2.0)	2.29
CC(C)C[C@@H]1NC(=O)[C@H](CCCCN)NC(=O)[C@H](Cc2ccc(O)cc2)NC(=O)CNC(=O)[C@@H]2CSSC[C@H](NC1=O)C(=O)N[C@@H](Cc1c[nH]cn1)C(=O)N[C@@H](C)C(=O)N[C@H](C(N)=O)CSSC[C@H](NC(=O)[C@@H](NC(=O)CNC(=O)[C@@H](N)CC(N)=O)C(C)C)C(=O)N2 [compound 145] (HELM PEPTIDE1{N.G.V.C.C.G.Y.K.L.C.H.A.C.[am]}$PEPTIDE1,PEPTIDE1,4:R3-13:R3|PEPTIDE1,PEPTIDE1,5:R3-10:R3$$$V2.0)	2.95
CC(C)C[C@@H]1NC(=O)[C@H](CCCCN)NC(=O)[C@H](Cc2ccc(O)cc2)NC(=O)CNC(=O)[C@@H]2CSSC[C@H](NC1=O)C(=O)N[C@@H](Cc1c[nH]cn1)C(=O)N1CCC[C@H]1C(=O)N[C@H](C(N)=O)CSSC[C@H](NC(=O)[C@@H](NC(=O)CNC(=O)[C@@H](N)CC(=O)O)C(C)C)C(=O)N2 [compound 151]	3.55
CC(=O)N[C@@H](CC(N)=O)C(=O)NCC(=O)N[C@H](C(=O)N[C@H]1CSSC[C@@H](C(N)=O)NC(=O)[C@@H]2CCCN2C(=O)[C@H](Cc2c[nH]cn2)NC(=O)[C@@H]2CSSC[C@H](NC1=O)C(=O)NCC(=O)N[C@@H](Cc1ccc(O)cc1)C(=O)N[C@@H](CCCCN)C(=O)N[C@@H](CC(C)C)C(=O)N2)C(C)C [compound 152]	3.63
CC(C)C[C@@H]1NC(=O)[C@H](CCCCN)NC(=O)[C@H](Cc2ccc(O)cc2)NC(=O)CNC(=O)[C@@H]2CSSC[C@H](NC1=O)C(=O)N[C@@H](Cc1c[nH]cn1)C(=O)N[C@@H](Cc1ccccc1)C(=O)N[C@H](C(N)=O)CSSC[C@H](NC(=O)[C@@H](NC(=O)CNC(=O)[C@@H](N)CC(N)=O)C(C)C)C(=O)N2 [compound 155]	4.07
CC(C)C[C@@H]1NC(=O)[C@H](CCCCN)NC(=O)[C@H](Cc2ccc(O)cc2)NC(=O)CNC(=O)[C@@H]2CSSC[C@H](NC1=O)C(=O)N[C@@H](Cc1c[nH]cn1)C(=O)N1CCC[C@H]1C(=O)N[C@H](C(N)=O)CSSC[C@H](NC(=O)[C@@H](NC(=O)[C@H](CO)NC(=O)[C@@H](N)CC(N)=O)C(C)C)C(=O)N2 [compound 156] (HELM PEPTIDE1{N.S.V.C.C.G.Y.K.L.C.H.P.C.[am]}$PEPTIDE1,PEPTIDE1,4:R3-13:R3|PEPTIDE1,PEPTIDE1,5:R3-10:R3$$$V2.0)	4.27
CC(C)C[C@@H]1NC(=O)[C@H](CCCCN)NC(=O)[C@H](Cc2ccc(O)cc2)NC(=O)CNC(=O)[C@@H]2CSSC[C@H](NC1=O)C(=O)N[C@@H](Cc1c[nH]cn1)C(=O)N[C@@H](CCC(=O)O)C(=O)N[C@H](C(N)=O)CSSC[C@H](NC(=O)[C@@H](NC(=O)CNC(=O)[C@@H](N)CC(N)=O)C(C)C)C(=O)N2 [compound 159] (HELM PEPTIDE1{N.G.V.C.C.G.Y.K.L.C.H.E.C.[am]}$PEPTIDE1,PEPTIDE1,4:R3-13:R3|PEPTIDE1,PEPTIDE1,5:R3-10:R3$$$V2.0)	4.9
CC(=O)N[C@@H](Cc1ccc(O)cc1)C(=O)N[C@@H](CC(N)=O)C(=O)NCC(=O)N[C@H](C(=O)N[C@H]1CSSC[C@@H](C(N)=O)NC(=O)[C@@H]2CCCN2C(=O)[C@H](Cc2c[nH]cn2)NC(=O)[C@@H]2CSSC[C@H](NC1=O)C(=O)NCC(=O)N[C@@H](Cc1ccc(O)cc1)C(=O)N[C@@H](CCCCN)C(=O)N[C@@H](CC(C)C)C(=O)N2)C(C)C [compound 161]	6.17
CC(C)C[C@@H]1NC(=O)[C@H](CCCCN)NC(=O)[C@H](Cc2ccc(O)cc2)NC(=O)CNC(=O)[C@@H]2CSSC[C@H](NC1=O)C(=O)N[C@@H](CCC(N)=O)C(=O)N1CCC[C@H]1C(=O)N[C@H](C(N)=O)CSSC[C@H](NC(=O)[C@@H](NC(=O)CNC(=O)[C@H](CC(N)=O)NC(=O)[C@@H](N)Cc1ccc(O)cc1)C(C)C)C(=O)N2 [compound 163] (HELM PEPTIDE1{Y.N.G.V.C.C.G.Y.K.L.C.Q.P.C.[am]}$PEPTIDE1,PEPTIDE1,5:R3-14:R3|PEPTIDE1,PEPTIDE1,6:R3-11:R3$$$V2.0)	6.92
CC(C)C[C@@H]1NC(=O)[C@H](CCCCN)NC(=O)[C@H](Cc2ccc(O)cc2)NC(=O)CNC(=O)[C@@H]2CSSC[C@H](NC1=O)C(=O)N[C@@H](Cc1c[nH]cn1)C(=O)N[C@@H](Cc1ccc(O)cc1)C(=O)N[C@H](C(N)=O)CSSC[C@H](NC(=O)[C@@H](NC(=O)CNC(=O)[C@@H](N)CC(N)=O)C(C)C)C(=O)N2 [compound 165]	7.08
CC(C)C[C@@H]1NC(=O)CNC(=O)[C@@H]2CSSC[C@H](NC(=O)[C@H](CC(C)C)NC(=O)[C@H](CCCCN)NC1=O)C(=O)N[C@@H](Cc1c[nH]cn1)C(=O)N1CCC[C@H]1C(=O)N[C@H](C(N)=O)CSSC[C@H](NC(=O)[C@@H](NC(=O)CNC(=O)[C@H](CC(N)=O)NC(=O)[C@@H](N)Cc1ccc(O)cc1)C(C)C)C(=O)N2 [compound 171] (HELM PEPTIDE1{Y.N.G.V.C.C.G.L.K.L.C.H.P.C.[am]}$PEPTIDE1,PEPTIDE1,5:R3-14:R3|PEPTIDE1,PEPTIDE1,6:R3-11:R3$$$V2.0)	10.7
CC(C)C[C@@H]1NC(=O)[C@H](C)NC(=O)[C@H](Cc2ccc(O)cc2)NC(=O)CNC(=O)[C@@H]2CSSC[C@H](NC1=O)C(=O)N[C@@H](Cc1c[nH]cn1)C(=O)N1CCC[C@H]1C(=O)N[C@H](C(N)=O)CSSC[C@H](NC(=O)[C@@H](NC(=O)CNC(=O)[C@@H](N)CC(N)=O)C(C)C)C(=O)N2 [compound 172]	10.7
CC(C)C[C@@H]1NC(=O)[C@H](Cc2ccc(O)cc2)NC(=O)CNC(=O)[C@@H]2CSSC[C@H](NC(=O)[C@H](CC(C)C)NC1=O)C(=O)N[C@@H](Cc1c[nH]cn1)C(=O)N1CCC[C@H]1C(=O)N[C@H](C(N)=O)CSSC[C@H](NC(=O)[C@@H](NC(=O)CNC(=O)[C@H](CC(N)=O)NC(=O)[C@@H](N)Cc1ccc(O)cc1)C(C)C)C(=O)N2 [compound 174] (HELM PEPTIDE1{Y.N.G.V.C.C.G.Y.L.L.C.H.P.C.[am]}$PEPTIDE1,PEPTIDE1,5:R3-14:R3|PEPTIDE1,PEPTIDE1,6:R3-11:R3$$$V2.0)	17.4
CC(C)C[C@@H]1NC(=O)[C@H](Cc2ccccc2)NC(=O)[C@H](Cc2ccc(O)cc2)NC(=O)CNC(=O)[C@@H]2CSSC[C@H](NC1=O)C(=O)N[C@@H](Cc1c[nH]cn1)C(=O)N1CCC[C@H]1C(=O)N[C@H](C(N)=O)CSSC[C@H](NC(=O)[C@@H](NC(=O)CNC(=O)[C@H](CC(N)=O)NC(=O)[C@@H](N)Cc1ccc(O)cc1)C(C)C)C(=O)N2 [compound 179] (HELM PEPTIDE1{Y.N.G.V.C.C.G.Y.F.L.C.H.P.C.[am]}$PEPTIDE1,PEPTIDE1,5:R3-14:R3|PEPTIDE1,PEPTIDE1,6:R3-11:R3$$$V2.0)	25.1
CC(C)C[C@@H]1NC(=O)[C@H](Cc2c[nH]cn2)NC(=O)[C@H](Cc2ccc(O)cc2)NC(=O)CNC(=O)[C@@H]2CSSC[C@H](NC1=O)C(=O)N[C@@H](Cc1c[nH]cn1)C(=O)N1CCC[C@H]1C(=O)N[C@H](C(N)=O)CSSC[C@H](NC(=O)[C@@H](NC(=O)CNC(=O)[C@@H](N)CC(N)=O)C(C)C)C(=O)N2 [compound 181] (HELM PEPTIDE1{N.G.V.C.C.G.Y.H.L.C.H.P.C.[am]}$PEPTIDE1,PEPTIDE1,4:R3-13:R3|PEPTIDE1,PEPTIDE1,5:R3-10:R3$$$V2.0)	47.9
CC(C)C[C@@H]1NC(=O)[C@H](CCCCN)NC(=O)[C@H](Cc2ccc(O)cc2)NC(=O)[C@@H](CCC(=O)O)NC(=O)[C@@H]2CSSC[C@H](NC1=O)C(=O)N[C@@H](Cc1c[nH]cn1)C(=O)N1CCC[C@H]1C(=O)N[C@H](C(N)=O)CSSC[C@H](NC(=O)[C@@H](NC(=O)CNC(=O)[C@@H](N)CC(N)=O)C(C)C)C(=O)N2 [compound 183]	61.7
CC(C)C[C@@H]1NC(=O)[C@H](CCCCN)NC(=O)[C@H](CC(N)=O)NC(=O)CNC(=O)[C@@H]2CSSC[C@H](NC1=O)C(=O)N[C@@H](Cc1c[nH]cn1)C(=O)N1CCC[C@H]1C(=O)N[C@H](C(N)=O)CSSC[C@H](NC(=O)[C@@H](NC(=O)CNC(=O)[C@H](CC(N)=O)NC(=O)[C@@H](N)Cc1ccc(O)cc1)C(C)C)C(=O)N2 [compound 184] (HELM PEPTIDE1{Y.N.G.V.C.C.G.N.K.L.C.H.P.C.[am]}$PEPTIDE1,PEPTIDE1,5:R3-14:R3|PEPTIDE1,PEPTIDE1,6:R3-11:R3$$$V2.0)	79.4
CC(C)C[C@@H]1NC(=O)[C@H](CCC(N)=O)NC(=O)[C@H](Cc2ccc(O)cc2)NC(=O)CNC(=O)[C@@H]2CSSC[C@H](NC1=O)C(=O)N[C@@H](Cc1c[nH]cn1)C(=O)N1CCC[C@H]1C(=O)N[C@H](C(N)=O)CSSC[C@H](NC(=O)[C@@H](NC(=O)CNC(=O)[C@@H](N)CC(N)=O)C(C)C)C(=O)N2 [compound 194] (HELM PEPTIDE1{N.G.V.C.C.G.Y.Q.L.C.H.P.C.[am]}$PEPTIDE1,PEPTIDE1,4:R3-13:R3|PEPTIDE1,PEPTIDE1,5:R3-10:R3$$$V2.0)	123
CC(C)C[C@@H]1NC(=O)[C@H](CCCCN)NC(=O)[C@H](CCC(=O)O)NC(=O)CNC(=O)[C@@H]2CSSC[C@H](NC1=O)C(=O)N[C@@H](Cc1c[nH]cn1)C(=O)N1CCC[C@H]1C(=O)N[C@H](C(N)=O)CSSC[C@H](NC(=O)[C@@H](NC(=O)CNC(=O)[C@H](CC(N)=O)NC(=O)[C@@H](N)Cc1ccc(O)cc1)C(C)C)C(=O)N2 [compound 195] (HELM PEPTIDE1{Y.N.G.V.C.C.G.E.K.L.C.H.P.C.[am]}$PEPTIDE1,PEPTIDE1,5:R3-14:R3|PEPTIDE1,PEPTIDE1,6:R3-11:R3$$$V2.0)	170
